Test results reported in US20220380375A1, “SUBSTITUTED AROMATIC FUSED RING DERIVATIVE AND COMPOSITION COMPRISING SAME, AND USE THEREOF” (Shenzhen TargetRx, Inc., priority 2019, published 2022).
Marks after values point to notes of the source that are not given here.

Experiments:
Ret wt = target: T1, Ret wt (Homo sapiens, UniProt P07949); test: Inhibition of kinase, Ret wt (HTRF KinEASE-TK); type: biochemical
T1 construct: purchased Carna 08-159-10 ug
Description: (§1) Ret wt (Carna, Cat. No. 08-159-10 ug), RET (V804M), Active (Signalchem. Cat. No. R02—12GG), HTRF KinEASE-TK kit (Cisbio, Cat. No.62TK0PEC), CEP-32496 (MCE, Cat. No. HY-15200), ATP (Sigma. Cat. No. A7699), DMSO (Sigma, Cat. No. D8418-1L), DTT (Sigma, Cat. No. D0632), MgCl2(Sigma, Cat. No. M1028), 384-well plate (Labcyte, Cat. No. P-05525-BC).
(§2) Formulation of compound: The test compounds were dissolved in DMSO to obtain 10 mM stock solutions, which were then serially diluted 3-fold in DMSO to obtain 10 concentrations. At the time of addition, the compound was further diluted 10-fold with buffer.
(§3) In 5×kinase buffer A, Ret wt or RET V804M kinase was mixed with different concentrations of compounds prepared by pre-dilution for 10 minutes. Each concentration was tested in duplicate. The corresponding substrate and ATP were added, and reaction was performed at room temperature for 20 minutes (negative and positive controls were provided: the negative control was a blank control, and the positive control was CEP-32496 (Agerafenib)). After completion of the reaction, detection reagents (reagents in the HTRF KinEASE-TK kit) were added. After incubating for 30 minutes at room temperature, enzyme activity in the presence of various concentrations of the compounds of the present disclosure was determined by Envision microplate reader, and inhibitory activity of different concentrations of the compounds on enzyme activity was calculated. The inhibitory activity of different concentrations of the compounds on enzyme activity was fitted by Graphpad 5.0 software, and the IC50 value was calculated.

RET V804M = target: T2, RET V804M (Homo sapiens, UniProt P07949, V804M); test: Inhibition of kinase, RET V804M (HTRF KinEASE-TK); type: biochemical
T2 construct: purchased Signalchem R02—12GG
T2 sequence (P07949 29-1114 V804M): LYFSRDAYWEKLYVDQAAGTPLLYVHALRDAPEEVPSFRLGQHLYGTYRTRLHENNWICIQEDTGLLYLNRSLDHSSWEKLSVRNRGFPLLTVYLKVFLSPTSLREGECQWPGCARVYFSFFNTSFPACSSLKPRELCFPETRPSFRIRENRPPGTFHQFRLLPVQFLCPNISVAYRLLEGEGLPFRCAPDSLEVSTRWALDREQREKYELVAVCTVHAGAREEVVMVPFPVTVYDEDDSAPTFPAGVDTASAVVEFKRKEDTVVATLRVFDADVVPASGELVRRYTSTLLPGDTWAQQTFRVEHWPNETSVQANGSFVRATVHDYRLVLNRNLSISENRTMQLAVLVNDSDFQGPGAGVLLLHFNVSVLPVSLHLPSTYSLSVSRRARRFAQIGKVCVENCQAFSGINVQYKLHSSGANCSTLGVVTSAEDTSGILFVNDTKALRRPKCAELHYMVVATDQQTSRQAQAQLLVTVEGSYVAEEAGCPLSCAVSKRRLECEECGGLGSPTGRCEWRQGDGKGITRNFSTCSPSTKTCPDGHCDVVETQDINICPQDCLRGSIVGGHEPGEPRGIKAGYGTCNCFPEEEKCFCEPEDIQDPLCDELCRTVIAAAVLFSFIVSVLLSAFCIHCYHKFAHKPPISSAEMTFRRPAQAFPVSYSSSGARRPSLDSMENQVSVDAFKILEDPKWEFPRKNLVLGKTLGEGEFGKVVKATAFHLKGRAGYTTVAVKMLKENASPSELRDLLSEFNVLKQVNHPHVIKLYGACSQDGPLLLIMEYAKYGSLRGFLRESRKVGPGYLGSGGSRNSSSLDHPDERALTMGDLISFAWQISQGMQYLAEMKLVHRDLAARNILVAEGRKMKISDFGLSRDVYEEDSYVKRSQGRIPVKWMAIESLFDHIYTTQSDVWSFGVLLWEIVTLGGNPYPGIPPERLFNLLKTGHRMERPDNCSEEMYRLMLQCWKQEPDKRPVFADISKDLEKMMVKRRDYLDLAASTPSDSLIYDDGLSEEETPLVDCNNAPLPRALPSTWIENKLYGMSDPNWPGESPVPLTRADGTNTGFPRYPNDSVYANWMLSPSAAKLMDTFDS
Description: as §1, §2, §3

[1] = system: Ba/F3 KIF5B-RET cell line tumor model; test: Anti-tumor effect assay in Ba/F3 KIF5B-RET cell line tumor model (allograft); type: in vivo, female NPSG mice; conditions: for Tumor volume (x ± S), Day 0 of administration: 10 mg/kg p.o. QD × 14, day 0 (baseline); for TGI (%), Day 14 of administration / Tumor volume (x ± S), Day 14 of administration: 10 mg/kg p.o. QD × 14, day 14
Excerpt: (§4) The efficacy of compounds of the present disclosure in female NPSG mouse allograft models of two B-cell lymphoma cell lines Ba/F3 KIF5B-RET and Ba/F3 KIF5B-RET^G810R was verified.
(§5) Assay animals: Female NPSG mice, 6-8 weeks old (age of mice at the time of tumor cell inoculation), weighing 18-20 g, 60 mice, purchased from Shanghai Jihui Laboratory Animal Care Co., Ltd.
(§6) Assay methods: 1) Ba/F3 KIF5B-RET and Ba/F3 KIF5B-RET^G810R cells were respectively resuscitated and Cultured in vitro, and 3×10^7 cells of each type were obtained. 2) 60 female NPSG mice aged 6-8 weeks were adaptively bred for 1 week and then weighed. 4) After inoculation, tumor volume and body weight were measured once a week. When average tumor volume reached about […], mice inoculated with each type of Ba/F3 cells were randomly divided into 7 groups according to tumor volume and body weight, with 3 mice in each group. The administration was started immediately after grouping. The date of start of administration was regarded as day 0. Informations on administration and grouping were shown in Tables 5 and 6.5) After the start of the administration, the body weight and tumor volume of mice were measured twice a week. 6) After the end of the administration, the assay was over.
(§7) Assay observation and data collection: After tumor inoculation, morbidity and death of animals were observed every working day. Daily observation included tumor growth and effects of drugs on laboratory animals, such as changes in activity, changes in feeding and drinking, weight loss, changes in appearance of hair and eye, death and other clinical symptoms. Formula for calculating tumor volume is: tumor volume (mm^3)=½×(a×b^2) (wherein a represents the long diameter and b represents the short diameter)
(§8) Relative tumor inhibition rate TGI (%): TGI %=(1−T/C)×100%. T/C % is relative tumor proliferation rate, that is, a percentage value of relative tumor volume between treatment group and control group at a certain point in time. T and C are relative tumor volume (RTV, that is, the […] tumor volume at this time point and tumor volume at day 0) of treatment group and control group at a certain point in time, respectively.
(§9) Statistical analysis: For pairwise comparison, a T-Test analysis method was used, and for comparison of three or more groups, a One-Way ANOVA method was used. For comparison of potential synergistic effects, a Two-way ANOVA was used. SPSS 24.0 was used for all data. A p value less than 0.05 was considered a significant difference.

[2] = system: Ba/F3 KIF5B-RET^G810R cell line tumor model; test: Anti-tumor effect assay in Ba/F3 KIF5B-RET^G810R cell line tumor model (allograft); type: in vivo, female NPSG mice; conditions: for Tumor volume (x ± S), Day 0 of administration / Tumor volume (x ± S), Day 13 of administration / TGI (%), Day 13 of administration: Ba/F3 KIF5B-RET^G810R model; for Tumor volume (x ± S), Day 0 of administration: 25 mg/kg p.o. QD × 13, day 0 (baseline); for Tumor volume (x ± S), Day 13 of administration / TGI (%), Day 13 of administration: 25 mg/kg p.o. QD × 13, day 13; for TGI (%), Day 13 of administration: TGI more than 100% = decrease in tumor volume; for relative tumor inhibition rate TGI (%): day 13 of administration, AD80 group 25 mg/kg
Excerpt: as §4, §5, §6, §7, §8, §9

[3] = Safety assay (body weight, tolerability) in Ba/F3 KIF5B-RET cell line tumor model; type: in vivo; conditions: for Number of animals at the beginning/end of assay: 10 mg/kg p.o. QD × 14; for Average weight g (x ± S), Day 0 of administration: 10 mg/kg p.o. QD × 14, day 0 (baseline); for Average weight g (x ± S), Day 14 of administration / Weight change rate (%), Day 14 of administration: 10 mg/kg p.o. QD × 14, day 14; for tolerability (weight loss, drug withdrawal, drug toxicity): during the treatment
Description: as §6, §7

[4] = Safety assay (body weight, tolerability) in Ba/F3 KIF5B-RET^G810R cell line tumor model; type: in vivo; conditions: for Number of animals at the beginning/end of assay: 25 mg/kg p.o. QD × 13; for Average weight g (x ± S), Day 0 of administration: 25 mg/kg p.o. QD × 13, day 0 (baseline); for Average weight g (x ± S), Day 13 of administration / Weight change rate (%), Day 13 of administration: 25 mg/kg p.o. QD × 13, day 13; for tolerability (weight loss, drug withdrawal, drug toxicity): during the treatment
Description: as §6, §7

T1 sequence (P07949 29-1114): as the sequence (P07949 29-1114 V804M) above, with M776V counted along it

| SMILES | IC50 (Ret wt) [pM] | IC50 (RET V804M) [pM] | Tumor volume (x ± S), Day 0 of administration [1] [mm^3] | TGI (%), Day 14 of administration [1] [%] | Tumor volume (x ± S), Day 14 of administration [1] [mm^3] | Tumor volume (x ± S), Day 0 of administration [2] [mm^3] | Tumor volume (x ± S), Day 13 of administration [2] [mm^3] | TGI (%), Day 13 of administration [2] [%#] | relative tumor inhibition rate TGI (%) [2] [%] | Number of animals at the beginning/end of assay [3] | Average weight g (x ± S), Day 0 of administration [3] [g] | Average weight g (x ± S), Day 14 of administration [3] [g] | Weight change rate (%), Day 14 of administration [3] [%] | tolerability (weight loss, drug withdrawal, drug toxicity) [3] | Number of animals at the beginning/end of assay [4] | Average weight g (x ± S), Day 0 of administration [4] [g] | Average weight g (x ± S), Day 13 of administration [4] [g] | Weight change rate (%), Day 13 of administration [4] [%] | tolerability (weight loss, drug withdrawal, drug toxicity) [4] |
| --- | --- | --- | --- | --- | --- | --- | --- | --- | --- | --- | --- | --- | --- | --- | --- | --- | --- | --- | --- |
| CC(C)n1nc(-c2ccc(CC(=O)Nc3cc(C(C)(C)C(F)(F)F)on3)c(F)c2)c2c(N)ncnc21 [Compound T-6, 2-(4-(4-amino-1-isopropyl-1H-pyrazolo[3,4-d]pyrimidin-3-yl)-2-fluorophenyl)-N-(5-(1,1,1-trifluoro-2-methylprop-2-yl)isoxazol-3-yl)acetamide] | ≤ 500 | 500 to 1000 | 104 ± 3.61 | 99.7 | 108.7 ± 31.33 | 93 ± 8.33 | 89.7 ± 4.48 | 100.9 | 100.9 | 3/3 | 19.3 ± 0.57 | 21 ± 0.91 | 8.8 | well tolerated | 3/3 | 19.4 ± 0.66 | 22.4 ± 0.46 | 15.75 | well tolerated |
| CC(C)n1nc(-c2ccc(CC(=O)Nc3cc(C(C)(C)C(F)(F)F)on3)cc2)c2c(N)ncnc21 [Compound T-1, 2-(4-(4-amino-1-isopropyl-1H-pyrazolo[3,4-d]pyrimidin-3-yl)phenyl)-N-(5-(1,1,1-trifluoro-2-methylprop-2-yl)isoxazol-3-yl)acetamide] | ≤ 500 | ≤ 500 | 102.7 ± 6.06 | 90.3 | 233 ± 65.74 | 98 ± 3.61 | 63.7 ± 16.19 | 109.4 | 109.4 | 3/3 | 20.9 ± 1.06 | 21.6 ± 1.05 | 3.4 | well tolerated | 3/3 | 20.3 ± 1.32 | 21.3 ± 1.19 | 4.90 | well tolerated |
